Source: patent US10160755B2 (Plexxikon Inc., priority 2015, dated 2018)

target: T1, FLT3-D835Y (Homo sapiens, UniProt P36888, D835Y); experiment: FLT3-D835Y biochemical kinase assay (AlphaScreen)
T1 construct: purchased Invitrogen PV3967
T1 sequence (P36888 27-993 D835Y): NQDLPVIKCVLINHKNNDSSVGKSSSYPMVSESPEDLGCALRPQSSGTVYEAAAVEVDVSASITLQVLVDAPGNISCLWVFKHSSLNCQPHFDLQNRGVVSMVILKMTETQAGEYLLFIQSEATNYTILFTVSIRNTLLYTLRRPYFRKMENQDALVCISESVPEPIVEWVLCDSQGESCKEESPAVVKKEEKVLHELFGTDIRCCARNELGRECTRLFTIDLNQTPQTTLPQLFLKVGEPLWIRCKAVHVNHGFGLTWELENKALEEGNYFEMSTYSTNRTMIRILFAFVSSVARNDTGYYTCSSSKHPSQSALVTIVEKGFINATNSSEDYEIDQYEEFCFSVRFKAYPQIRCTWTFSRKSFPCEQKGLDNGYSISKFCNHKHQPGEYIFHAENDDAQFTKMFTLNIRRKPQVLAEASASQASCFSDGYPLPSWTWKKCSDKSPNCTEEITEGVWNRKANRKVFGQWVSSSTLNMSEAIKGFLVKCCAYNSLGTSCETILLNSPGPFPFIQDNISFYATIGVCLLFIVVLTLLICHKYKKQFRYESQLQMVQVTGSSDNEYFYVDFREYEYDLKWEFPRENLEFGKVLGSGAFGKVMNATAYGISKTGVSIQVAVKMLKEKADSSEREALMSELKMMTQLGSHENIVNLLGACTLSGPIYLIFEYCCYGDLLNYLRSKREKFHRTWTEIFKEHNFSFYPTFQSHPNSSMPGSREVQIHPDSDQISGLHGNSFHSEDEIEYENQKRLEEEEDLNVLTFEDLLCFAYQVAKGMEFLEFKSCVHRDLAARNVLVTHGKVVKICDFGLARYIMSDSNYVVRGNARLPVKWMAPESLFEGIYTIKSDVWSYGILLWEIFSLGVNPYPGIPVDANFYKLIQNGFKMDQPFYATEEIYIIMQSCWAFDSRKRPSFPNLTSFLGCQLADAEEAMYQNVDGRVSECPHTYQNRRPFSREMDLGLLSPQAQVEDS
Summary of the method: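 AlphaScreen read-out of tyrosine phosphorylation of a 30 nM biotinylated poly(Glu4-Tyr) substrate, captured on streptavidin donor and PY20 acceptor beads at room temperature. ATP for IC50 work was 100 μM with FLT3-ITD and 10 μM with FLT3-D835Y; reduced 580 nm proximity signal reflects kinase inhibition.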

IC50, 0.0001 to 1 µM:
COc1cc(-c2cc3c(-c4ccc5ncn(C(C)(C)C)c5c4)c[nH]c3nn2)ccn1 [P-315, 5-(3-tert-butylbenzimidazol-5-yl)-3-(2-methoxy-4-pyridyl)-7H-pyrrolo[2,3-c]pyridazine]
c1cc(N2CCOCC2)ncc1-c1cnc2[nH]cc(-c3ccc4ncn(C5CCCNC5)c4c3)c2n1 (stereo not drawn) [P-325, 4-[5-[7-[3-(3-piperidyl)benzimidazol-5-yl]-5H-pyrrolo[2,3-b]pyrazin-2-yl]-2-pyridyl]morpholine]
CC(C)(C)n1cnc2ccc(-c3n[nH]c4ncc(-c5ccnc(N6CCOCC6)c5)cc34)cc21 [P-297, 4-[4-[3-(3-tert-butylbenzimidazol-5-yl)-1H-pyrazolo[3,4-b]pyridin-5-yl]-2-pyridyl]morpholine]
O=S1(=O)CCCN1c1cc(-c2cnc3[nH]cc(-c4ccc5ncn(C6CCCNC6)c5c4)c3c2)ccn1 (stereo not drawn) [P-311, 2-[4-[3-[3-(3-piperidyl)benzimidazol-5-yl]-1H-pyrrolo[2,3-b]pyridin-5-yl]-2-pyridyl]-1,2-thiazolidine 1,1-dioxide]
COc1cnc2[nH]cc(-c3ccc4ncn(-c5ccccc5)c4c3)c2c1 [P-068, 5-methoxy-3-(3-phenylbenzimidazol-5-yl)-1H-pyrrolo[2,3-b]pyridine]
Cc1ncc(C#Cc2cnc3[nH]cc(-c4ccc5ncn(C(C)(C)C)c5c4)c3c2)cn1 [P-383, 1-tert-butyl-6-[5-[2-(2-methylpyrimidin-5-yl)ethynyl]-1H-pyrrolo[2,3-b]pyridin-3-yl]benzimidazole]
CC(C)(O)c1ncc(-c2cnc3[nH]cc(-c4ccc5ncn(C(C)(C)C)c5c4)c3n2)cn1 [P-380, 2-[5-[7-(3-tert-butylbenzimidazol-5-yl)-5H-pyrrolo[2,3-b]pyrazin-2-yl]pyrimidin-2-yl]propan-2-ol]
CC(C)(C)n1cnc2ccc(-c3c[nH]c4ncc(-c5ccc(N6CCOCC6)nc5)cc34)cc21 [P-322, 4-[5-[3-(3-tert-butylbenzimidazol-5-yl)-1H-pyrrolo[2,3-b]pyridin-5-yl]-2-pyridyl]morpholine]
COc1cnc2[nH]cc(-c3ccc4ncn(C5CCC5)c4c3)c2c1 [P-061, 1-cyclobutyl-6-(5-methoxy-1H-pyrrolo[2,3-b]pyridin-3-yl)benzimidazole]
CN1CCN(c2ccc(-c3cnc4[nH]cc(-c5ccc6ncn(C7CCCNC7)c6c5)c4n3)cc2)CC1 (stereo not drawn) [P-344, 2-[4-(4-methylpiperazin-1-yl)phenyl]-7-[3-(3-piperidyl)benzimidazol-5-yl]-5H-pyrrolo[2,3-b]pyrazine]
O=S1(=O)CCCN1c1ccc(-c2cnc3[nH]cc(-c4ccc5ncn(C6CCCNC6)c5c4)c3c2)cc1 (stereo not drawn) [P-319, 2-[4-[3-[3-(3-piperidyl)benzimidazol-5-yl]-1H-pyrrolo[2,3-b]pyridin-5-yl]phenyl]-1,2-thiazolidine 1,1-dioxide]
Cc1ncc(-c2cnc3[nH]cc(-c4ccc5ncn(C(C)(C)C)c5c4)c3n2)cn1 [P-289, 7-(3-tert-butylbenzimidazol-5-yl)-2-(2-methylpyrimidin-5-yl)-5H-pyrrolo[2,3-b]pyrazine]
COc1cnc2[nH]cc(-c3ccc4ncn(C5CCCNC5)c4c3)c2c1 (stereo not drawn) [P-079, 5-methoxy-3-[3-(3-piperidyl)benzimidazol-5-yl]-1H-pyrrolo[2,3-b]pyridine]
Cc1ncc(C#Cc2cnc3[nH]cc(-c4ccc5ncn(C6CCCNC6)c5c4)c3n2)cn1 (stereo not drawn) [P-285, 2-[2-(2-methylpyrimidin-5-yl)ethynyl]-7-[3-(3-piperidyl)benzimidazol-5-yl]-5H-pyrrolo[2,3-b]pyrazine]
CC(C)(C)n1cnc2ccc(-c3c[nH]c4ncc(-c5ccnc(N6CCCCC6)c5)nc34)cc21 [P-338, 7-(3-tert-butylbenzimidazol-5-yl)-2-[2-(1-piperidyl)-4-pyridyl]-5H-pyrrolo[2,3-b]pyrazine]
